Laboratory results reported in ChEMBL document CHEMBL3217584, “Pharmacokinetics of bendamustine in the central nervous system: chemoinformatic screening followed by validation in a murine model” (Medchemcomm, 2012).

Key:
[1] = AUC in C57BL/6J mouse CSF at 70 mg/kg, ip by CE-UV analysis; format: ADME, organism-based; set-up: dose 70 mg/kg, route intraperitoneal
[2] = Drug uptake in C57BL/6J mouse eye at 70 mg/kg, ip measured at 20 to 40 mins by CE-UV analysis; format: ADME, organism-based; set-up: dose 70 mg/kg, route intraperitoneal; details: in vivo
Brain = test: Drug uptake in C57BL/6J mouse brain at 70 mg/kg, ip measured at 20 to 40 mins by CE-UV analysis; format: ADME, organism-based; set-up: dose 70 mg/kg, route intraperitoneal; details: in vivo
[3] = Cmax in C57BL/6J mouse CSF at 70 mg/kg, ip measured at 20 to 40 mins by CE-UV analysis; format: ADME, organism-based, Cerebrospinal fluid; set-up: dose 70 mg/kg, route intraperitoneal
[4] = Ratio of AUC in C57BL/6J mouse CSF to AUC in C57BL/6J mouse serum; format: ADME
[5] = Half life in C57BL/6J mouse serum at 70 mg/kg, ip by CE-UV analysis; format: ADME, organism-based; set-up: dose 70 mg/kg, route intraperitoneal
[6] = AUC in C57BL/6J mouse serum at 70 mg/kg, ip by CE-UV analysis; format: ADME, organism-based, Plasma; set-up: dose 70 mg/kg, route intraperitoneal

Cn1c(CCCC(=O)O)nc2cc(N(CCCl)CCCl)ccc21 [BENDAMUSTINE]
AUC [1]: 210 µM·h
Drug uptake [2]: Active
Drug uptake (Brain): Active
Cmax [3]: 393 µM
Ratio AUC [4]: 35%
half-life [5]: 40 min
AUC [6]: 575 µM·h
